Here are results for one molecule from article PMC7949139, “The molecular basis of OH-PCB estrogen receptor activation” (The Journal of Biological Chemistry, 2021).

The structures appear in SMILES notation. Changes are numbered by the printed parent chain.

Test [1] deals with T1, spin-labeled SULT1E1, spin label attached at Cys residue 16 (C69S/G16C) (Homo sapiens, UniProt P49888, C69S/G16C).
T1 construct: E. coli codon-optimized SULT1E1 coding region inserted into the PreScission Protease cleavage site; His/GST/MBP triple tag (N, cleaved yes); made in house; host or cells: E. coli BL21(DE3)
T1 sequence (P49888 1-294 G16C/C69S): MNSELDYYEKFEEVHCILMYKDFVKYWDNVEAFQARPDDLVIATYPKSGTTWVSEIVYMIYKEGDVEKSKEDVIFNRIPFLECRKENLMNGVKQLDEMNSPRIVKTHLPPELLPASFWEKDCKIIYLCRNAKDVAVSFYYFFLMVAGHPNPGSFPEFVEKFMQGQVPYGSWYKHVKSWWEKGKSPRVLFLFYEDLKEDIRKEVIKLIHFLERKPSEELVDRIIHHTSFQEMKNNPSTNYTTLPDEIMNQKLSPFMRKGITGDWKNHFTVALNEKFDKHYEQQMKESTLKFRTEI
The experiment in a line: Initial-rate studies, spin-labeled construct (label at Cys 16). It counts as biochemical. Conditions: spin label at Cys 16; parentheses = one SD; read-out: Ki OH-PCB1. As for the experimental part:
Spin labels were attached to the SULT1E1 scaffold at Cys residues that were site-specifically incorporated via PCR-based mutagenesis. Prior to creating spin-label attachment constructs, reactive Cys was removed from the native scaffold. Only one of the four native SULT1E1 Cys (i.e., C69) reacts with DTNB ([39]), and mutagenic conversion of C69 to ser produced a stable, fully active non-DTNB-reactive scaffold. Five individual cys-attachment constructs were prepared from the C69S mutant (G16C, K25C, N150C, Q163C, and N233C). Mutants were labeled (see, Experimental procedures) and the initial rate parameters (kcat, Km and Ki) of each spin-labeled mutant were determined (see, Experimental procedures, Initial-Rate studies) to evaluate whether the catalytic integrity of the constructs had been compromised by the insertions and/or spin label attachments. […]
Labels (N-cyclohexylmale-imide or 3-maleimido-PROXYL) were added in 20-fold excess over reactive cysteine to a solution containing SULT1E1 construct (50 μM active sites), 0.50 mM PAP, and 50 mM KPO4 (pH 7.4), 25 °C ± 2 deg. […] The reactions were monitored by using DTNB to measure unreacted cysteine and were considered complete when >98% of the cysteine had reacted (∼3 h).
C. Reaction progress was monitored via the fluorescence change associated with 1-HP sulfonation (λex = 325 nm, λem = 370 nm ([51], [52])). […]

In another test the target is T2, SULT1E1 Y239A (Homo sapiens, UniProt P49888, Y239A).
T2 construct: E. coli codon-optimized SULT1E1 coding region inserted into the PreScission Protease cleavage site; His/GST/MBP triple tag (N, cleaved yes); made in house; host or cells: E. coli BL21(DE3)
T2 sequence (P49888 1-294 Y239A): T1 sequence (P49888 1-294 G16C/C69S) with C16G, S69C, Y239A
Put plainly: Initial-rate studies (1-HP sulfonation; OH-PCB1 inhibition), Y239A mutant. It is filed as biochemical. As for the experimental part: (§1) C. Reaction progress was monitored via the fluorescence change associated with 1-HP sulfonation (λex = 325 nm, λem = 370 nm ([51], [52])). Initial rates were measured during conversion to product of ≤5% of the concentration-limiting substrate consumed at the reaction endpoint. Velocities were determined in triplicate. Km and kcat were obtained by (1/v^4)-weighted least-squares fitting of the averaged data in double-reciprocal space (i.e., 1/v versus 1/[S]) ([66], [67]).
(§2) Inhibition studies were performed as described above except: 1-HP was fixed (2.0 μM, 100 × Km), OH-PCBs were added (0.20–20 × Ki), and SULT1E1 was 0.20 nM (active sites). Ki was determined by least-squares fitting to a noncompetitive inhibition model ([66], [67]).

The target of another test is T3, SULT1E1 F80A/F75A (Homo sapiens, UniProt P49888, F75A/F80A).
T3 construct: E. coli codon-optimized SULT1E1 coding region inserted into the PreScission Protease cleavage site; His/GST/MBP triple tag (N, cleaved yes); made in house; host or cells: E. coli BL21(DE3)
T3 sequence (P49888 1-294 F75A/F80A): T1 sequence (P49888 1-294 G16C/C69S) with C16G, S69C, F75A, F80A
The experiment in a line: Initial-rate studies (1-HP sulfonation; OH-PCB1 inhibition), double mutant. It counts as biochemical. As for the experimental part:
as §1, §2

Test [2] concerns estrogen receptor (ER) activation in Ishikawa cells expressing WT SULT1E1. The experiment in a line: cells. It is filed as cell-based, human. To be noted: Homo sapiens, Ishikawa; WT cell line; OH-PCB titration at 10 nM E2 (footnote a); parentheses = one SD; read-out: Ligand EC50, ER activation. As for the experimental part: pcDNA 3.1 constructs harboring either the SULT1E1 WT or double mutant (F75A/F80A) coding regions were generated using Gibson Assembly ([74]). The vectors were linearized using BGIII. Ishikawa cells were grown at 37 °C ± 2 deg. C in growth medium (MEM media containing 10% v/v FBS). At confluence, the cells were washed (3×) with PBS media before coating with an Opti-MEM solution containing a linearized construct (50 ng μg^−1) and lipofectamine (2.5 units ml^−1). After 24 h at 37 °C ± 2 deg. C, cells were washed (3×) with PBS before adding growth medium containing neomycin (400 μg ml^−1) to select transfectants. Selective growth medium was replenished every 48 h until single colonies could be isolated (∼3–6 weeks). Single colonies were transferred using trypsin digest (0.05%) to 12-well plates and grown at 37 °C ± 2 deg. C to confluence for further experimentation and storage.
Transfected Ishikawa cells were grown at 37 °C ± 2 deg. C to 60 to 70% confluency in MEM containing 10% v/v FBS. Cells were then transferred to 96-well tissue culture plates and grown at 37 °C ± 2 deg. C to 80% confluency in MEM containing 10% v/v charcoal filtered FBS. The plate was then washed with PBS and grown at 37 °C ± 2 deg. C for 24 h in MEM without FBS. Estradiol (0–3.0 μM) and OH-PCB (0–1.0 μM) solubilized in neat DMSO were added and cells were incubated at 37 °C ± 2 deg. C for 5 days. The final concentrations of DMSO were ≤0.10%. Cells were then washed twice with PBS before adding pNpp (5.0 mM) in PBS ([75]). Following incubation with pNpp for 3 h at 25 °C ± 2 deg. C, wells were read at 405 nm using a Synergy HT BioTek Plate Reader.

Setting [3] is: noncompetitive inhibition model, parentheses = one SD.

For `Oc1ccc(-c2c(Cl)cccc2Cl)cc1` [OH-PCB1, 4ʹ-OH-2,6-dichlorobiphenol], the results for the inhibitory constant (Ki) (in test [1]; on SULT1E1 Y239A (setting [3]); at SULT1E1 F80A/F75A (setting [3])) were 63 nM, 340 nM and 6800 nM, respectively. Besides, the “Fold Effect = Ki OH-PCB1/Ki OH-PCB1 WT” value at SULT1E1 Y239A was 5.7; at SULT1E1 F80A/F75A it was 113. For the same molecule, in test [2], the EC50 worked out at 38 nM.

What is called Ki is a dissociation constant, usually derived from enzyme kinetics or from competition with a known ligand. As a reminder, the EC50 is the concentration needed to bring the measured effect to its halfway point.
